This is an account of results in patent publication US20200230068A1, “COMPOSITIONS AND METHODS OF DELIVERY OF PHARMACOLOGICAL AGENTS” (NAL PHARMACEUTICAL GROUP LIMITED, priority 2017, published 2020).

The nature of one series: in vitro. The following applies: Chinese hamster; for cytotoxicity at 20 minutes, 0.01 µM: Cytotoxicity %. As for the experimental part:
Conjugated Complex has been tested in CHO cells expressing human recombinant sst2a. Cell viability was measured using the CellTiter-Glo® Luminescent Cell Viability Assay (Promega) that determines the number of viable cells in culture, based on quantitation of the ATP present that is an indicator of metabolically active cells.
After dispensing test compounds to the wells, cells in the incubation buffer were added to the wells and incubated for 20 minutes. At the end of incubation, CellTiter-Glo was added to each well to measure luminescence.

Series [1] in a line: Stability in rat plasma in vitro. It is filed as in vitro ADME. The protocol: SST-Albumin fusion proteins may have a longer serum half-life and/or more stabilized activity in solution or in a pharmaceutical composition in vitro and/or in vivo compared to the corresponding unfused SST molecules. In rat plasma, for example, more than 90% of SST fusion protein was detected until 40 minutes of incubation, and more than 70% of SST fusion proteins remained up to at least 180 min. Under the same conditions, less than about 50% of free SST remained after 40 minute incubation, and no free SST was detected beyond 120 minutes. […] Thus, it would take about 72 hours for the concentration of SST fusion protein to reach zero concentration in plasma.
The stability of free SST and SST fusion protein was compared in in vitro rat plasma.

Series [2] has as its target sst2a receptor expressed on CHO-K1 cells (UniProt P30874). In words: cell-based or functional assay.
Chain of UniProt P30874 (P30874 whole entry): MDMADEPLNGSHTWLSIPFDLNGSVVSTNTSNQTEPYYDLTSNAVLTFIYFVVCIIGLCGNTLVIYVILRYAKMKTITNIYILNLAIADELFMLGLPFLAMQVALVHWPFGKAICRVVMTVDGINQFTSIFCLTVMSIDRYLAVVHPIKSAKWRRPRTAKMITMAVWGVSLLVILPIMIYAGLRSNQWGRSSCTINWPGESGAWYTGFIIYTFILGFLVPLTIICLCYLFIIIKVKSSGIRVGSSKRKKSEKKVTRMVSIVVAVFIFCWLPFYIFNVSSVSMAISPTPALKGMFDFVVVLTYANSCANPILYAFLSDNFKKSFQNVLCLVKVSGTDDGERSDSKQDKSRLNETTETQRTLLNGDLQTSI
For series [3] the following is noted: cited from earlier work.

Regarding `C[C@@H]1CC[C@@]2(OC1)O[C@H]1[C@@H](O)[C@H]3[C@@H]4CC[C@H]5C[C@@H](O[C@@H]6O[C@H](CO)[C@H](O[C@@H]7O[C@H](CO)[C@@H](O)[C@H](O[C@@H]8OC[C@@H](O)[C@H](O)[C@H]8O)[C@H]7O[C@@H]7O[C@H](CO)[C@H](O)[C@H](O[C@@H]8O[C@H](CO)[C@@H](O)[C@H](O)[C@H]8O)[C@H]7O)[C@H](O)[C@H]6O)[C@H](O)C[C@]5(C)[C@H]4CC[C@]3(C)[C@H]1[C@@H]2C` [Digitonin], the cytotoxicity at 20 min, 20 mg/ml in the series “in vitro” came out at 100%. Regarding `C[C@@H](O)[C@@H]1NC(=O)[C@H](CCCCN)NC(=O)[C@@H](Cc2c[nH]c3ccccc23)NC(=O)[C@H](Cc2ccccc2)NC(=O)[C@@H](NC(=O)[C@H](N)Cc2ccccc2)CSSC[C@@H](C(=O)N[C@H](CO)[C@@H](C)O)NC1=O` [Octreotide], the cytotoxicity at 20 minutes, 0.01 µM in the series “in vitro” (Test 2, 10 nM) is 8%; in “in vitro” (test 1, 10 nM), -4%. In the case of `C[C@H](N)C(=O)NCC(=O)N[C@H]1CSSC[C@@H](C(=O)O)NC(=O)[C@H](CO)NC(=O)[C@H]([C@@H](C)O)NC(=O)[C@H](Cc2ccccc2)NC(=O)[C@H]([C@@H](C)O)NC(=O)[C@H](CCCCN)NC(=O)[C@H](Cc2c[nH]c3ccccc23)NC(=O)[C@H](Cc2ccccc2)NC(=O)[C@H](Cc2ccccc2)NC(=O)[C@H](CC(N)=O)NC(=O)[C@H](CCCCN)NC1=O` [free SST, somatostatin], the “time up to which detected in rat plasma (not detected beyond)” value in series [1] (rat plasma incubation) is not above 120 min. Moreover, the remaining at 40 min in series [1] (rat plasma, 40 minutes of incubation, read-out: fraction detected/remaining in rat plasma) is less than 50%. As for Octreotide (peptide), the EC50 (adenylyl cyclase assay, CHO-K1 cells expressing sst2a receptor) in series [2] turned out to be 0.039 nM.

With insulin-like growth factor-I [IGF-1], the half-life in series [3] was 10 to 20 min.

Usually half-life stands for the time needed for the level to fall by half in the phase considered.
